Results taken from patent US20210238197A1, “NOVEL OXOQUINOLIZINE COMPOUNDS FOR THE TREATMENT AND PROPHYLAXIS OF BACTERIAL INFECTION” (Hoffmann-La Roche Inc., priority 2018, published 2021).
In brackets after ≈: the same amount, converted by molar mass. Read-outs that look alike come from different tables or passages of the source.

Legend:
[1] = test system: S. aureus (ATCC29213); experiment: 50% growth inhibitory concentration (IC50) determination assay, S. aureus; format: cell-based; details: Staphylococcus aureus, ATCC29213; Iso-Sensitest broth, growth by OD 600 nm over 16 h; <0.098 = detection limit
Experimental: (§1) The in vitro antimicrobial activity of the compounds against S. aureus (ATCC29213), K. pneumoniae (ATCC10031), and A. baumannii (ATCC17978), was determined according to the following procedure: The assay used a 10-points Iso-Sensitest broth medium to measure quantitatively the in vitro activity of the compounds against S. aureus ATCC29213, K. pneumoniae ATCC 10031, and A. baumannii ATCC17978. Stock compounds in DMSO were serially two-fold diluted (range from 50 to 0.097 μM final concentration) in 384 wells microtiter plates and inoculated with 49 μL the bacterial suspension in Iso-Sensitest broth medium to have a final cell concentration of ˜5×10^5 CFU/mL in a final volume/well of 50 μL/well. Microtiter plates were incubated at 35±2° C. Bacterial cell growth was determined with the measurement of optical density at λ=600 nm each 20 minutes over a time course of 16 h.

[2] = test system: K. pneumoniae (ATCC10031); experiment: 50% growth inhibitory concentration (IC50) determination assay, K. pneumoniae; format: cell-based; details: Klebsiella pneumoniae, ATCC10031; Iso-Sensitest broth, growth by OD 600 nm over 16 h; <0.098 = detection limit
Experimental: as §1

[3] = test system: A. baumannii (ATCC17978); experiment: 50% growth inhibitory concentration (IC50) determination assay, A. baumannii; format: cell-based; details: Acinetobacter baumannii, ATCC17978; Iso-Sensitest broth, growth by OD 600 nm over 16 h; <0.098 = detection limit
Experimental: as §1

[4] = test system: multiple species and strains; experiment: microbe, parasite or virus in culture; set-up: MIC S9 / MIC S7 / MIC S11 / MIC S8 / MIC S10: unit not given beside the values; details: for MIC S9: E. coli ATCC 35218
Experimental: The MIC of antibacterial compounds against multiple species and strains was determined using the broth microdilution method according to M07-A10 Clinical and Laboratory Standards Institute (CLSI) guidelines (CLSI (2015) Methods for dilution antimicrobial susceptibility tests for bacteria that grow aerobically; Approved Standard, Tenth Edition. CLSI Document M7-A10 (ISBN 1-56238-987-4). Wayne, Pa.: Clinical and Laboratory Standards Institute, 19087, USA.). In short, bacterial strain preparation was performed on D1 and D2. […] 5-10 well-isolated colonies of similar morphology were selected and re-streaked onto fresh agar plates using sterile loops and incubated for 20-24 hr at 35±2° C. Bacterial strains were subcultured two times to ensure fresh inoculums for MIC screening. […] Alternatively, 1-2 colonies were transferred into 500 μL of saline and OD600 was adjusted to ˜0.1 using an OD meter. Bacterial inoculum was diluted by 1:280 for Gram-positive strains and 1:400 for Gram-negative strains into corresponding medium broth (CAMHB, CAMHB+3% lysed horse blood, HTM) (e.g. 35.6 μL of inoculum into 10 mL of CAMHB or 25 μL of inoculum into 10 mL of CAMHB). For compound plate, the compound stock solutions were prepared in 100% DMSO on the day of MIC screening and used immediately. Compound stock concentration=[(highest testing concentration)×100 μL/2 μL] (e.g. if the required highest testing concentration is 64 μg/mL in assay plates, stock concentration=64 μg/mL×100 μL/2 μL=3.2 mg/mL). […] 1 μL of each well was transferred in a new MTP, which served as the test plate by subsequent inoculation. The bacterial suspension prepared above is dispensed at 98 μL/well within 15 minutes after preparation. Negative controls (lack of bacterial cells) and growth control wells (lack of compound) were included in all plates. MTPs were incubated for 18-24 hours at 35±2° C. in ambient air. The MIC was recorded and CFUs were calculated on Day 4. The assay plate was placed on the top of MIC reader, and the magnification mirror was adjusted to read each wells, recording growth status as raw data. Photo images of each assay plates were recorded using Q Count 530 (Spiral Biotech). The MIC value of each compound, expressed as μg/mL, was determined as the lowest concentration required for complete growth inhibition (no visible growth).

[5] = Acinetobacter baumannii, ATCC19606, read-out: MIC S1, A. baumannii ATCC 19606
[6] = Acinetobacter baumannii, ATCC51432, read-out: MIC S2, A. baumannii ATCC 51432
[7] = Acinetobacter baumannii, ATCCBAA747, read-out: MIC S3, A. baumannii ATCC BAA-747
[8] = Escherichia coli, ATCC25922, read-out: MIC S11, E. coli ATCC 25922
[9] = Escherichia coli, ATCCBAA2340, read-out: MIC S10, E. coli ATCC BAA-2340
[10] = Klebsiella pneumoniae, ATCC10031, read-out: MIC S4, K. pneumoniae ATCC 10031
[11] = Klebsiella pneumoniae, ATCC700603, read-out: MIC S5, K. pneumoniae ATCC 700603
[12] = Klebsiella pneumoniae, ATCCBAA2146, read-out: MIC S6, K. pneumoniae ATCC BAA-2146
[13] = Pseudomonas aeruginosa, ATCC27853, read-out: MIC S7, P. aeruginosa ATCC 27853
[14] = Pseudomonas aeruginosa, ATCCBAA2113, read-out: MIC S8, P. aeruginosa ATCC BAA-2113

Row | SMILES | IC50 [1] | IC50 [2] | IC50 [3] | MIC [4, 5] | MIC [4, 6] | MIC [4, 7] | MIC S9 [4] | MIC [4, 8] | MIC [4, 9] | MIC [4, 10] | MIC [4, 11] | MIC [4, 12] | MIC [4, 13] | MIC [4, 14]
1 | CNc1cc(F)c(C#N)c2c1[nH]c1ncc(-c3ccc4ccc(C(=O)O)c(=O)n4c3)c(N(C)C)c12 [Example 1.18, 7-[5-cyano-4-(dimethylamino)-6-fluoro-8-(methylamino)-9H-pyrido[2,3-b]indol-3-yl]-4-oxo-quinolizine-3-carboxylic acid] |  |  |  | 0.092 µg/mL (≈ 0.196 µM) | 0.367 µg/mL (≈ 0.78 µM) | 0.184 µg/mL (≈ 0.391 µM) | 0.046 | 0.551 µg/mL (≈ 1.17 µM) | 0.046 µg/mL (≈ 0.0978 µM) | 0.046 µg/mL (≈ 0.0978 µM) | 0.092 µg/mL (≈ 0.196 µM) | 0.735 µg/mL (≈ 1.56 µM) | 0.367 µg/mL (≈ 0.78 µM) | 0.184 µg/mL (≈ 0.391 µM)
2 | CNc1cc(F)c(F)c2c1[nH]c1ncc(-c3cc(C)c4ccc(C(=O)O)c(=O)n4c3)c(N(C)C)c12 [Example 1.20, 7-[4-(dimethylamino)-5,6-difluoro-8-(methylamino)-9H-pyrido[2,3-b]indol-3-yl]-9-methyl-4-oxo-quinolizine-3-carboxylic acid] |  |  |  | 0.187 µg/mL (≈ 0.392 µM) | 1.49 µg/mL (≈ 3.12 µM) | 0.746 µg/mL (≈ 1.56 µM) | 0.559 | 0.42 µg/mL (≈ 0.88 µM) | 0.559 µg/mL (≈ 1.17 µM) | 0.187 µg/mL (≈ 0.392 µM) | 1.49 µg/mL (≈ 3.12 µM) | 2.98 µg/mL (≈ 6.25 µM) | 2.98 µg/mL (≈ 6.25 µM) | 2.24 µg/mL (≈ 4.69 µM)
3 | CNc1cc(F)c(F)c2c1[nH]c1ncc(-c3ccc4ccc(C(=O)O)c(=O)n4c3)c(N3CCC(C4(N)CC4)C3)c12 (stereo not drawn) [Example 1.21, 7-[4-[3-(1-aminocyclopropyl)pyrrolidin-1-yl]-5,6-difluoro-8-(methylamino)-9H-pyrido[2,3-b]indol-3-yl]-4-oxo-quinolizine-3-carboxylic acid] |  |  |  | 0.603 µg/mL (≈ 1.11 µM) | 1.21 µg/mL (≈ 2.22 µM) | 1.21 µg/mL (≈ 2.22 µM) | 0.603 | 0.34 µg/mL (≈ 0.624 µM) | 0.302 µg/mL (≈ 0.555 µM) | 0.038 µg/mL (≈ 0.0698 µM) | 4.83 µg/mL (≈ 8.87 µM) | 4.83 µg/mL (≈ 8.87 µM) | 1.21 µg/mL (≈ 2.22 µM) | 2.41 µg/mL (≈ 4.43 µM)

Further lines, with some results ahead:

Row | IC50 [1] | IC50 [2] | IC50 [3] | SMILES | MIC [4, 5] | MIC [4, 6] | MIC [4, 7] | MIC S9 [4] | MIC [4, 8] | MIC [4, 9] | MIC [4, 10] | MIC [4, 11] | MIC [4, 12] | MIC [4, 13] | MIC [4, 14]
4 | < 98 nM | < 98 nM | < 98 nM | CNc1cc(F)c(F)c2c1[nH]c1ncc(-c3ccc4ccc(C(=O)O)c(=O)n4c3)c(N3CC4[C@H](CC[C@@H]4N(C)C)C3)c12 (stereo partly drawn) [Example 1.09, 7-[4-[cis-(4S)-4-(dimethylamino)-3,3a,4,5,6,6a-hexahydro-1H-cyclopenta[c]pyrrol-2-yl]-5,6-difluoro-8-(methylamino)-9H-pyrido[2,3-b]indol-3-yl]-4-oxo-quinolizine-3-carboxylic acid] |  |  |  |  |  |  |  |  |  |  | 
5 | < 98 nM | < 98 nM | < 98 nM | CNc1cc(F)c(F)c2c1[nH]c1ncc(-c3ccc4ccc(C(=O)O)c(=O)n4c3)c(N3C[C@@H]4[C@H](C3)[C@H]4N(C)C)c12 [Example 1.13, 7-(4-((1R,5S,6S)-6-(dimethylamino)-3-azabicyclo[3.1.0]hexan-3-yl)-5,6-difluoro-8-(methylamino)-9H-pyrido[2,3-b]indol-3-yl)-4-oxo-4H-quinolizine-3-carboxylic acid] |  |  |  |  |  |  |  |  |  |  | 
6 | < 98 nM | < 98 nM | < 98 nM | CNc1cc(F)c(F)c2c1[nH]c1ncc(-c3ccc4ccc(C(=O)O)c(=O)n4c3)c(N3C[C@@H]4CCN(C)[C@@H]4C3)c12 [Example 3.03B, 7-[4-[(3aS,6aS)-1-methyl-2,3,3a,4,6,6a-hexahydropyrrolo[3,4-b]pyrrol-5-yl]-5,6-difluoro-8-(methylamino)-9H-pyrido[2,3-b]indol-3-yl]-4-oxo-quinolizine-3-carboxylic acid] |  |  |  |  |  |  |  |  |  |  | 
